Row | Structure (SMILES) | melting point [°C]
1 | OC[C@H](O)CN1CCc2nc(-c3ccc(O[C@H]4C[C@H](N5CCCCC5)C4)cc3)sc2C1 [Compound 17, (2R)-3-[2-{4-[(trans-3-piperidin-1-ylcyclobutyl)oxy]phenyl}-6,7-dihydro[1,3]thiazolo[5,4-c]pyridin-5(4H)-yl]propane-1,2-diol] | 172
2 | CC(=O)N1CCc2nc(-c3ccc(O[C@H]4C[C@H](N5CCCCCC5)C4)cc3)sc2C1 [Compound 19, 5-acetyl-2-{4-[(trans-3-azepan-1-ylcyclobutyl)oxy]phenyl}-4,5,6,7-tetrahydro[1,3]thiazolo[5,4-c]pyridine] | 135
3 | CC(=O)N1CCc2nc(-c3ccc(O[C@H]4C[C@H](N5CCOCC5)C4)cc3)sc2C1 [Compound 8, 5-acetyl-2-{4-[(trans-3-morpholin-4-ylcyclobutyl)oxy]phenyl}-4,5,6,7-tetrahydro[1,3]thiazolo[5,4-c]pyridine] | 161.6 to 162.2
4 | OCC(O)CN1CCc2nc(-c3ccc(O[C@H]4C[C@H](N5CCCCC5)C4)cc3)sc2C1 (stereo partly drawn) [Compound 15, 3-[2-{4-[(trans-3-piperidin-1-ylcyclobutyl)oxy]phenyl}-6,7-dihydro[1,3]thiazolo[5,4-c]pyridin-5(4H)-yl]propane-1,2-diol] | 169
5 | OC[C@@H](O)CN1CCc2nc(-c3ccc(O[C@H]4C[C@H](N5CCCCC5)C4)cc3)sc2C1 [Compound 16, (2S)-3-[2-{4-[(trans-3-piperidin-1-ylcyclobutyl)oxy]phenyl}-6,7-dihydro[1,3]thiazolo[5,4-c]pyridin-5(4H)-yl]propane-1,2-diol] | 175
6 | NCC(=O)N1CCc2nc(-c3ccc(O[C@H]4C[C@H](N5CCCCC5)C4)cc3)sc2C1 [Compound 9, 2-oxo-2-[2-{4-[(trans-3-piperidin-1-ylcyclobutyl)oxy]phenyl}-6,7-dihydro[1,3]thiazolo[5,4-c]pyridin-5(4H)-yl]ethanamine] | 199
7 | O=C(CO)N1CCc2nc(-c3ccc(O[C@H]4C[C@H](N5CCCCC5)C4)cc3)sc2C1 [Compound 11, 2-oxo-2-[2-{4-[(trans-3-piperidin-1-ylcyclobutyl)oxy]phenyl}-6,7-dihydro[1,3]thiazolo[5,4-c]pyridin-5(4H)-yl]ethanol] | 177
8 | CC(=O)N1CCc2nc(-c3ccc(O[C@H]4C[C@H](N5CCSCC5)C4)cc3)sc2C1 [Compound 22, 5-acetyl-2-{4-[(trans-3-thiomorpholin-4-ylcyclobutyl)oxy]phenyl}-4,5,6,7-tetrahydro[1,3]thiazolo[5,4-c]pyridine] | 196
9 | CC(=O)N1CCc2nc(-c3ccc(O[C@H]4C[C@H](N5CCCCC5)C4)cc3)sc2C1 [Compound 4, 5-acetyl-2-{4-[(trans-3-piperidin-1-ylcyclobutyl)oxy]phenyl}-4,5,6,7-tetrahydro[1,3]thiazolo[5,4-c]pyridine] | 170.3
10 | O=S(=O)(N1CCOCC1)N1CCc2nc(-c3ccc(O[C@H]4C[C@H](N5CCCCC5)C4)cc3)sc2C1 [Compound 7, 5-(morpholin-4-ylsulfonyl)-2-{4-[(trans-3-piperidin-1-ylcyclobutyl)oxy]phenyl}-4,5,6,7-tetrahydro[1,3]thiazolo[5,4-c]pyridine] | 178

The next lines start with the values.

Row | melting point [°C] | Structure (SMILES)
11 | 175 to 176 | O=C(C1CCOCC1)N1CCc2nc(-c3ccc(O[C@H]4C[C@H](N5CCCCC5)C4)cc3)sc2C1 [Compound 45, 2-{4-[(trans-3-piperidin-1-ylcyclobutyl)oxy]phenyl}-5-(tetrahydro-2H-pyran-4-ylcarbonyl)-4,5,6,7-tetrahydro[1,3]thiazolo[5,4-c]pyridine]
12 | 199 to 200 | NC(=O)C1(C(=O)N2CCc3nc(-c4ccc(O[C@H]5C[C@H](N6CCCCC6)C5)cc4)sc3C2)CC1 [Compound 47, 1-{[2-{4-[(trans-3-piperidin-1-ylcyclobutyl)oxy]phenyl}-6,7-dihydro[1,3]thiazolo[5,4-c]pyridin-5(4H)-yl]carbonyl}cyclopropanecarboxamide]
13 | 183.4 | NC(=O)CC(=O)N1CCc2sc(-c3ccc(O[C@H]4C[C@H](N5CCCCC5)C4)cc3)nc2C1 [Compound 65, 3-oxo-3-[2-{4-[(trans-3-piperidin-1-ylcyclobutyl)oxy]phenyl}-6,7-dihydro[1,3]thiazolo[4,5-c]pyridin-5(4H)-yl]propanamide]
14 | > 200 | O=C(O)COCC(=O)N1CCc2nc(-c3ccc(O[C@H]4C[C@H](N5CCCCC5)C4)cc3)sc2C1 [Compound 43, {2-oxo-2-[2-{4-[(trans-3-piperidin-1-ylcyclobutyl)oxy]phenyl}-6,7-dihydro[1,3]thiazolo[5,4-c]pyridin-5(4H)-yl]ethoxy}acetic acid]
15 | 165 to 172 | c1cc2nc(-c3ccc(O[C@H]4C[C@H](N5CCCCC5)C4)cc3)[nH]c2cn1 [Compound 69, 2-{4-[(trans-3-piperidin-1-ylcyclobutyl)oxy]phenyl}-3H-imidazo[4,5-c]pyridine]
16 | 167 to 168 | O=C(C(O)CO)N1CCc2nc(-c3ccc(O[C@H]4C[C@H](N5CCCCC5)C4)cc3)sc2C1 (stereo partly drawn) [Compound 54, 3-oxo-3-[2-{4-[(trans-3-piperidin-1-ylcyclobutyl)oxy]phenyl}-6,7-dihydro[1,3]thiazolo[5,4-c]pyridin-5(4H)-yl]propane-1,2-diol]
17 | 154.2 | CC(=O)N1CCc2sc(-c3ccc(O[C@H]4C[C@H](N5CCCCC5)C4)cc3)nc2C1 [Compound 29, 5-acetyl-2-{4-[(trans-3-piperidin-1-ylcyclobutyl)oxy]phenyl}-4,5,6,7-tetrahydro[1,3]thiazolo[4,5-c]pyridine]
18 | 157 to 159 | CC(C)Oc1c(N2CCc3nc(-c4ccc(O[C@H]5C[C@H](N6CCCCC6)C5)cc4)sc3C2)c(=O)c1=O [Compound 56, 3-isopropoxy-4-[2-{4-[(trans-3-piperidin-1-ylcyclobutyl)oxy]phenyl}-6,7-dihydro[1,3]thiazolo[5,4-c]pyridin-5(4H)-yl]cyclobut-3-ene-1,2-dione]
19 | 145.7 to 146.1 | CC(=O)N1CCc2nc(-c3ccc(O[C@H]4C[C@H](N5CCN(C6CCCC6)CC5)C4)cc3)sc2C1 [Compound 51, 5-acetyl-2-(4-{[trans-3-(4-cyclopentylpiperazin-1-yl)cyclobutyl]oxy}phenyl)-4,5,6,7-tetrahydro[1,3]thiazolo[5,4-c]pyridine]
20 | 65 | c1cc2sc(-c3ccc(O[C@H]4C[C@H](N5CCCCC5)C4)cc3)nc2cn1 [Compound 32, 2-{4-[(trans-3-piperidin-1-ylcyclobutyl)oxy]phenyl}[1,3]thiazolo[4,5-c]pyridine]
21 | 49 | CC(=O)N1CCCCc2nc(-c3ccc(O[C@H]4C[C@H](N5CCCCC5)C4)cc3)sc21 [Compound 31, 4-acetyl-2-{4-[(trans-3-piperidin-1-ylcyclobutyl)oxy]phenyl}-5,6,7,8-tetrahydro-4H-[1,3]thiazolo[5,4-b]azepine]
22 | > 220 | O=c1c(O)c(N2CCc3nc(-c4ccc(O[C@H]5C[C@H](N6CCCCC6)C5)cc4)sc3C2)c1=O [Compound 55, 3-hydroxy-4-[2-{4-[(trans-3-piperidin-1-ylcyclobutyl)oxy]phenyl}-6,7-dihydro[1,3]thiazolo[5,4-c]pyridin-5(4H)-yl]cyclobut-3-ene-1,2-dione]

— patent US20100292188A1, “Compounds Comprising A Cyclobutoxy Group” (UCB PHARMA S.A., priority 2008, published 2010)
